Earlier results, collected in patent publication US12274713B2, “Nutraceutical composition comprising a water-soluble fullerene and a ketone” (priority 2021, dated 2025).

System: tumor growth and metastasis
Settings: Prylutska et al.

**Q.** Which “tumor growth and metastasis” value does the source give for `c12c3c4c5c1c1c6c7c2c2c8c3c3c9c4c4c%10c5c5c1c1c6c6c%11c7c2c2c7c8c3c3c8c9c4c4c9c%10c5c5c1c1c6c6c%11c2c2c7c3c3c8c4c4c9c5c1c1c6c2c3c41` [60-carbon fullerene, Buckminsterfullerene] here?
**A.** The value was “inhibit tumor growth and metastasis”.
